Laboratory results taken from EP1388586A2, “Identification of broadly reactive DR restricted epitopes” (priority 1998, dated 1999).
Like-named read-outs stand apart in the source and are kept apart here. Square brackets hold non-standard residues; d marks the D form. Ends that are not written are not given here. Peptide text beside a SMILES is read from it.

Tests used:
DRB1*0401 (DR4w4) = biological target: T1, DRB1*0401 (DR4w4) (Homo sapiens, UniProt P01903+P01911, A100K/A169T/F76Y/I96L/K127E/L162R/M171V/N62H/P40V/Q125Y/R42H/S133A/S149N/S66Y/V115G/V209L/W38E); assay: Class II peptide-binding assay, DR4w4;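 further: unlabeled test peptides compete with a radiolabeled probe peptide for binding to affinity-purified HLA-DR, with DR amount titrated to capture a small fraction of label, IC50 approximating Kd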
T1 construct: used as sources of human HLA class II molecules; endogenous in cells; host or cells: PREISS (EBV-transformed homozygous B cell line)
Protocol: (§1) Class II peptide-binding assays. […] These assays were chosen as to be representative of the most common DR alleles.
(§2) Radiolabeled peptides were iodinated using the chloramine-T method. […] In appropriate stoichiometric conditions, the IC50 of an unlabeled test peptide to the purified DR is a reasonable approximation of the affinity of interaction (Kd). Peptides were tested in two to four completely independent experiments. […] Final detergent concentration in the incubation mixture was 0.05% Nonidet P-40. Assays were performed at pH 7.0 with the exception of DR3, which was performed at pH 4.5, and DRw53, which was performed at pH 5.0.
(§3) All subsequent inhibition and direct binding assays were the performed using these class II concentrations.

DRB1*0701 (DR7) = DRB1*0701 (DR7) (Homo sapiens, UniProt P01903+P01911, A100R/A102G/A103Q/D57E/D86V/E43K/F76Y/K127E/L162R/M171V/P40G/Q125H/Q99D/R33Q/R42Y/R54Q/S133A/S66F/T210M/V115G/Y107V/Y59L/Y89S); assay: Class II peptide-binding assay, DR7;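 further: unlabeled peptides compete with an iodinated probe peptide for binding to affinity-purified HLA-DR at neutral pH, DR amount titered to bind a small tracer fraction, IC50 approximating Kd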
Protocol: as §1, §2, §3

DRB5*0101 (DR2w2a) = biological target: T2, DRB5*0101 (DR2w2a) (Homo sapiens, UniProt P01903+Q30154); assay: Class II peptide-binding assay, DR2w2a (DR2w2B2);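 further: competitive binding assay: unlabeled peptide inhibiting binding of a radiolabeled probe peptide to purified DR molecules at pH 7.0, IC50 approximating Kd, lower means stronger binding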
T2 construct: used as sources of human HLA class II molecules; endogenous in cells; host or cells: GM3107 (EBV-transformed homozygous B cell line)
Protocol: as §1, §2, §3

DRB1*0101 (DR1) = biological target: T3, DRB1*0101 (DR1) (Homo sapiens, UniProt P01903+P01911, A100R/D57E/F55L/F60I/F76Y/I96L/L162R/M171V/P40L/Q125E/R42F/V115G/Y59C); assay: Class II peptide-binding assay, DR1;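 further: competition assay: unlabeled test peptides inhibit binding of a radiolabeled probe peptide to purified DR, with half-maximal inhibition taken as an approximate dissociation constant Kd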
T3 construct: used as sources of human HLA class II molecules; endogenous in cells; host or cells: LG2 (EBV-transformed homozygous B cell line)

DRB1*1101 (DR5w11) = biological target: T4, DRB1*1101 (DR5w11) (Homo sapiens, UniProt P01903+P01911, A100R/A169T/A87E/I96F/K41T/L162R/M171V/P40S/Q125H/Q178H/Q39Y/Q99D/R42S/S66Y/T262R/V115G/W38E); assay: Class II peptide-binding assay, DR5w11;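 further: competition by unlabeled test peptide against iodinated probe peptide binding to affinity-purified HLA-DR, class II amount titrated beforehand, half-maximal inhibitory concentration read as approximate Kd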
T4 construct: used as sources of human HLA class II molecules; endogenous in cells; host or cells: SWEIG (EBV-transformed homozygous B cell line)

DRB10404 (DR4w14) = biological target: T5, DRB10404 (DR4w14) (Homo sapiens, UniProt P01903+P01911, A100R/A169T/F76Y/I96L/K127E/L162R/M171V/N62H/P40V/Q125Y/R42H/S133A/S149N/S66Y/V209L/W38E); assay: Class II peptide-binding assay, DR4w14;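 further: unlabeled peptides compete with a radiolabeled probe for binding to affinity-purified HLA-DR, neutral pH, class II amount titrated to bind a small fraction of label, IC50 approximates Kd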
T5 construct: used as sources of human HLA class II molecules; endogenous in cells; host or cells: BIN40 (EBV-transformed homozygous B cell line)
Protocol: as §1
In appropriate stoichiometric conditions, the IC50 of an unlabeled test peptide to the purified DR is a reasonable approximation of the affinity of interaction (Kd). Peptides were tested in two to four completely independent experiments. […] Final detergent concentration in the incubation mixture was 0.05% Nonidet P-40. Assays were performed at pH 7.0 with the exception of DR3, which was performed at pH 4.5, and DRw53, which was performed at pH 5.0.
as §3

[1] = read-out: DR4w4 nM (In IC50 Format), purified HLA DR4w4
[2] = read-out: DR7 nM (In IC50 Format), purified HLA DR7
[3] = read-out: DR2w2B2 nM (In IC50 Format), purified HLA DR2w2β2
[4] = read-out: DR1 nM (In IC50 Format), purified HLA DR1
[5] = read-out: DR5w11 nM (In IC50 Format), purified HLA DR5w11
[6] = read-out: DR4w14 nM (In IC50 Format), purified HLA DR4w14
[7] = read-out: DR4w4 nM, Table VIII, In IC50 Format
[8] = read-out: DR7 nM, Table VIII, In IC50 Format
[9] = read-out: DR2w2B2 nM, Table VIII, In IC50 Format
[10] = read-out: DR1 nM, Table VIII, In IC50 Format
[11] = read-out: DR5w11 nM, Table VIII, In IC50 Format
[12] = read-out: DR4w14 nM, Table VIII, In IC50 Format
[13] = purified HLA DR4w4, read-out: DR4w4 nM (In IC50 Format)
[14] = purified HLA DR7, read-out: DR7 nM (In IC50 Format)
[15] = purified HLA DR2w2β2, read-out: DR2w2B2 nM (In IC50 Format)
[16] = purified HLA DR1, read-out: DR1 nM (In IC50 Format)
[17] = purified HLA DR5w11, read-out: DR5w11 nM (In IC50 Format)
[18] = purified HLA DR4w14, read-out: DR4w14 nM (In IC50 Format)

T4 sequence (P01903 26-254, other chains not shown): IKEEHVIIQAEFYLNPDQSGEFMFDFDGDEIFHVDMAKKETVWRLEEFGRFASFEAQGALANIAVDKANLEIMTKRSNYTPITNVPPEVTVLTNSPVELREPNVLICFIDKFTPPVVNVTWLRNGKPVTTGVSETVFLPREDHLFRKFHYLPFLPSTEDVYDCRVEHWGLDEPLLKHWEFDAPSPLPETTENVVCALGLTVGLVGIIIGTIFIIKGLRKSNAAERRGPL

Molecule | IC50 (DRB1*0401 (DR4w4); [1]) [µM] | IC50 (DRB1*0701 (DR7); [2]) [µM] | IC50 (DRB5*0101 (DR2w2a); [3]) [µM] | IC50 (DRB1*0101 (DR1); [4]) [µM] | IC50 (DRB1*1101 (DR5w11); [5]) [µM] | IC50 (DRB10404 (DR4w14); [6]) [µM] | other results
C[C@H](NC(=O)[C@H](C)NC(=O)[C@H](C)NC(=O)[C@H](Cc1ccc(O)cc1)NC(=O)[C@H](C)NC(=O)[C@@H](C)N)C(=O)N[C@@H](C)C(=O)N[C@H](C(=O)N[C@@H](C)C(=O)N[C@@H](CCCCN)C(=O)N[C@@H](C)C(=O)N[C@@H](C)C(=O)N[C@H](C)C(N)=O)[C@@H](C)O [Peptide 762.02] (H-[dA]AYAAAATAKAA[dA]-NH2) | 0.002 | 0.694 | 0.105 | 0.0017 | 0.0256 | 1.43 | –
KMYFNLINTKCYKLEH [Peptide 541.14] | – | – | – | – | – | – | IC50 (DRB1*0401 (DR4w4); Table VIII, read-out: In IC50 Format DR4w4): 2.14 µM; IC50 (DRB1*0701 (DR7); Table VIII, read-out: In IC50 Format DR7): 0.269 µM; IC50 (DRB5*0101 (DR2w2a); Table VIII, read-out: In IC50 Format DR2w2β2): 0.103 µM; IC50 (DRB1*0101 (DR1); Table VIII, read-out: In IC50 Format DR1): 0.714 µM; IC50 (DRB1*1101 (DR5w11); Table VIII, read-out: In IC50 Format DR5w11): 0.25 µM; IC50 (DRB10404 (DR4w14); Table VIII, read-out: In IC50 Format DR4w14): 3.57 µM
YARFQSNTTLKAKT-NH2 [Peptide 717.47] | 0.0038 | 4.17 | 0.444 | 0.0417 | 0.0182 | 0.0147 | –
CPIAIMSALAMVYLGAKDS [Peptide 705.04] | 0.882 | 1.09 | 0.408 | 0.0532 | 6.67 | 1.14 | –
C[C@H](NC(=O)[C@H](N)Cc1ccc(O)cc1)C(=O)N[C@@H](C)C(=O)N[C@@H](Cc1ccccc1)C(=O)N[C@@H](C)C(=O)N[C@@H](C)C(=O)N[C@@H](C)C(=O)N[C@@H](C)C(=O)N1CCC[C@H]1C(=O)N[C@@H](CCCCN)C(=O)N[C@@H](C)C(=O)N[C@@H](C)C(=O)N[C@@H](C)C(=O)N[C@H](C)C(N)=O [Peptide 828.06] (H-[dY]AAFAAAAPKAAA[dA]-NH2) | – | – | – | – | – | – | IC50 (DRB1*0401 (DR4w4); [7]): 0.214 µM; IC50 (DRB1*0701 (DR7); [8]): 1.92 µM; IC50 (DRB5*0101 (DR2w2a); [9]): 0.019 µM; IC50 (DRB1*0101 (DR1); [10]): 0.002 µM; IC50 (DRB1*1101 (DR5w11); [11]): 0.235 µM; IC50 (DRB10404 (DR4w14); [12]): 10 µM
C[C@H](NC(=O)[C@H](C)NC(=O)[C@H](Cc1ccccc1)NC(=O)[C@H](C)NC(=O)[C@@H](C)N)C(=O)N[C@@H](C)C(=O)N[C@@H](C)C(=O)N1CCC[C@H]1C(=O)N[C@@H](CCCCN)C(=O)N[C@@H](C)C(=O)N[C@@H](C)C(=O)N[C@@H](C)C(=O)N[C@H](C)C(N)=O [Peptide 828.05] (H-[dA]AFAAAAPKAAA[dA]-NH2) | – | – | – | – | – | – | IC50 (DRB1*0401 (DR4w4); [7]): 0.155 µM; IC50 (DRB1*0701 (DR7); [8]): 1.32 µM; IC50 (DRB5*0101 (DR2w2a); [9]): 0.0156 µM; IC50 (DRB1*0101 (DR1); [10]): 0.0019 µM; IC50 (DRB1*1101 (DR5w11); [11]): 0.105 µM; IC50 (DRB10404 (DR4w14); [12]): 6.25 µM
YSRFQSQTTLKAKT-NH2 [Peptide 717.38] | 0.01 | 6.25 | 0.274 | 0.0061 | 0.0167 | 0.0152 | –
MQYIKANSKFIGITE [Peptide 812.05] | – | – | – | – | – | – | IC50 (DRB1*0401 (DR4w4); [13]): 0.229 µM; IC50 (DRB1*0701 (DR7); [14]): 0.0078 µM; IC50 (DRB5*0101 (DR2w2a); [15]): 0.0024 µM; IC50 (DRB1*0101 (DR1); [16]): 0.0641 µM; IC50 (DRB1*1101 (DR5w11); [17]): 0.0067 µM; IC50 (DRB10404 (DR4w14); [18]): 0.0845 µM
YARFQAQTTLKAKT-NH2 [Peptide 717.55] | 0.0045 | 5 | 0.0909 | 0.0024 | 0.0111 | 0.0043 | –
AFAAAATLKA-NH2 [Peptide 770.01] | 0.0237 | 0.694 | 0.0431 | 0.0781 | 0.25 | 0.357 | –
CC[C@H](C)[C@H](NC(=O)CNC(=O)[C@@H](NC(=O)[C@H](Cc1ccccc1)NC(=O)[C@H](CCCCN)NC(=O)[C@H](CO)NC(=O)[C@H](CC(N)=O)NC(=O)[C@H](C)NC(=O)[C@H](CCCCN)NC(=O)[C@@H](NC(=O)[C@H](Cc1ccc(O)cc1)NC(=O)[C@@H](N)CCC(N)=O)[C@@H](C)CC)[C@@H](C)CC)C(=O)N[C@H](C(=O)N[C@@H](CCC(=O)O)C(=O)N[C@@H](CC(C)C)C(=O)N[C@@H](CCCCN)C(=O)N[C@@H](CCCCN)C(N)=O)[C@@H](C)O [Peptide 812.01] | – | – | – | – | – | – | IC50 (DRB1*0401 (DR4w4); [13]): 0.409 µM; IC50 (DRB1*0701 (DR7); [14]): 0.357 µM; IC50 (DRB5*0101 (DR2w2a); [15]): 0.016 µM; IC50 (DRB1*0101 (DR1); [16]): 0.0806 µM; IC50 (DRB1*1101 (DR5w11); [17]): 0.0286 µM; IC50 (DRB10404 (DR4w14); [18]): 16.7 µM
YARFASQTTLKAKT-NH2 [Peptide 782.02] | 0.0025 | 6.25 | 0.191 | 0.0036 | 0.0257 | 0.0147 | –
YARFQSQTALKAKT-NH2 [Peptide 717.52] | 0.0046 | 1.14 | 0.0154 | 0.0022 | 0.0333 | 0.0313 | –
YARFQSQTTLKAKA-NH2 [Peptide 717.48] | 0.0026 | 6.25 | 0.0408 | 0.0018 | 0.0059 | 0.0053 | –
YAEFQSQTTLKAKT-NH2 [Peptide 717.41] | 0.0321 | 25 | 0.667 | 0.0238 | 0.0385 | 0.0658 | –
YARFQSQTTLAAKT-NH2 [Peptide 717.50] | 0.0031 | 4.17 | 0.274 | 0.0042 | 0.0208 | 0.0043 | –
EALVRQGLAKVAYVYKPNN [NASE 101-] | – | – | – | – | – | – | IC50 (DRB1*0401 (DR4w4); [7]): 0.978 µM; IC50 (DRB1*0701 (DR7); [8]): 0.454 µM; IC50 (DRB5*0101 (DR2w2a); [9]): 0.154 µM; IC50 (DRB1*0101 (DR1); [10]): 0.0022 µM; IC50 (DRB1*1101 (DR5w11); [11]): 0.1 µM; IC50 (DRB10404 (DR4w14); [12]): 1.14 µM
YARFQSQTSLKAKT-NH2 [Peptide 717.31] | 0.0051 | 0.676 | 0.143 | 0.0045 | 0.02 | 0.0106 | –
YARFQSQSTLKAKT-NH2 [Peptide 717.16] | 0.0018 | 3.57 | 0.105 | 0.006 | 0.004 | 0.0081 | –
YARFQSQTTLKAAT-NH2 [Peptide 717.49] | 0.0066 | 4.17 | 0.118 | 0.0021 | 0.0063 | 0.0071 | –
